Tests used:
[1] = In vitro metabolism in mouse and human liver microsomes and cytosols; assay type: in vitro ADME; settings: for major metabolism in the presence of liver cytosol (aldehyde oxidase-mediated oxidation): 10 μM, 60 min, mouse and human; for glucuronide conjugates: with UDPGA
human ALK2 = human ALK2 (Homo sapiens (Human), UniProt Q04771); test: LANCE Ultra ULight enzymatic assay, ALK2; assay type: biochemical; settings: 10 μM ATP
[2] = In vitro metabolism in human liver microsomes and cytosols; assay type: in vitro ADME

human ALK2, sequence (Q04771 21-509): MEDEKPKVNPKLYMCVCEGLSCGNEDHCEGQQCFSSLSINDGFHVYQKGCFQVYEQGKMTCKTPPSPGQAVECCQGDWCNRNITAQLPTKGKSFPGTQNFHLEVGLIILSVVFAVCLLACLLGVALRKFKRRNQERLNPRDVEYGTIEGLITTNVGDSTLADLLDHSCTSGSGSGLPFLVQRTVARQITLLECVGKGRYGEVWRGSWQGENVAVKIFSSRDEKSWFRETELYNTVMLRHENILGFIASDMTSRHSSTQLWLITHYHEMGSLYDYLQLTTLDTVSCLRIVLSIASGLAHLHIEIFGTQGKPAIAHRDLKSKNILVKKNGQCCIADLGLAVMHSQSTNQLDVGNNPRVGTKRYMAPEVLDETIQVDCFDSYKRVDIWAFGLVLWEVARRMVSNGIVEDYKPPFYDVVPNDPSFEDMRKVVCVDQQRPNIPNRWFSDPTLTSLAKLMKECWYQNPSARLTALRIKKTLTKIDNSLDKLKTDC

Structure (SMILES): c1ccc2c(-c3cnn4cc(-c5ccc(C6CCNCC6)cc5)cnc34)ccnc2c1 [Compound 48]
- major metabolism in the presence of liver cytosol (aldehyde oxidase-mediated oxidation) [1]: metabolized mainly through the oxidation of the quinoline ring
- GSH trapping of soft electrophiles ([1]; GSH 2 mM): not observed
- cyanide adducts (reactive intermediate trapping with KCN) ([1]; KCN 0.1 mM): not observed
- glucuronide conjugates [1]: not observed

Structure (SMILES): Cc1ccc2c(-c3cnn4cc(-c5ccc(OCCN6CCCCC6)cn5)cnc34)cccc2n1 [Compound 48′, 2-methyl-5-(6-(5-(2-(piperidin-1-yl)ethoxy)pyridin-2-yl)pyrazolo[1,5-a]pyrimidin-3-yl)quinoline]
- IC50 (human ALK2): 85 nM

Structure (SMILES): C[C@@H]1CNC[C@H](C)N1c1ccc(-c2cnc3c(-c4ccnc5ccccc45)cnn3c2)cc1 [compound 2, 4-(6-(4-((2R,6S)-2,6-dimethylpiperazin-1-yl)phenyl)pyrazolo[1,5-a]pyrimidin-3-yl)quinoline]
- major metabolism in the presence of liver cytosol (aldehyde oxidase-mediated oxidation) [1]: oxidation of the alpha-carbon of quinoline nitrogen, leading to M450c
- glucuronide conjugates [1]: not observed

Structure (SMILES): Cc1cc(-c2cnn3cc(-c4ccc(N5CCNCC5)nc4)cnc23)c2ccccc2n1 [compound 12, 2-methyl-4-(6-(6-(piperazin-1-yl)pyridin-3-yl)pyrazolo[1,5-a]pyrimidin-3-yl)quinoline]
- oxidative metabolites in incubation without NADPH (AO mediated metabolism) ([2]; 10 μM, 1 hr, HLM + human cytosol): Oxidative metabolites were not observed
- cyanide adduct (KCN trapping) ([2]; KCN 1 mM): A major cyanide adduct was observed
- glucuronide conjugates ([2]; UDPGA 4 mM): Glucuronide conjugates were not observed
- aniline metabolites ([2]; human liver microsomal preparations): An aniline derivative was observed
